US8664217B2, “Benzodiazepine compound and pharmaceutical composition” (Otsuka Pharmaceutical Co., Ltd., priority 2008, dated 2014)
Structures can show the parent of a compound that is named as a salt.

These compounds were tested against T1, human Kv1.5 channels (Homo sapiens, UniProt P22460) (assay: Measurement of human Kv1.5 channel current by whole-cell patch clamp method (human Kv1.5-expressing CHO-K1 cell line)). Details: human Kv1.5-expressing CHO-K1 cells, step end current at +40 mV, test compound 0.1, 1, 10 μM.
T1 construct: Full-length human Kv1.5 cDNA was cloned from a human heart cDNA library; expressed in transfected cells; host or cells: CHO-K1
Type: cell-based
Description: Pharmacological Test 1 (1) Production of Human Kv1.5-Expressing CHO-K1 Cell Lines
CHO-K1 cell lines stably expressing human Kv1.5 channels were prepared in the following manner.
Full-length human Kv1.5 cDNA was cloned from a human heart cDNA library (produced by Stratagene). The obtained human Kv1.5 sequence corresponds to the sequence described in FASEB J. 5, 331-337 (1991).
The obtained human Kv1.5 cDNA was inserted into a plasmid encoding a CMV promoter and a G418 resistance marker to produce a Kv1.5 expression vector. The human Kv1.5 expression vector was transfected into CHO-K1 cells by the lipofectamine method. After culturing the cells in an F-12 medium (produced by Invitrogen Corp.) containing 10% FBS (produced by Invitrogen Corp.) for 3 or 4 days, the medium was replaced with a FBS-containing F-12 medium that included 1,000 μg/ml of G418 (produced by Invitrogen Corp.), and single colonies were isolated. The amount of Kv1.5 channel expression in the single colonies was quantified at the mRNA level by RT-PCR and then quantified at the protein level by western blotting. Finally, the expressed current was analyzed by patch clamp method. Cell lines expressing a current of 200 pA or more per cell were selected as channel-expressing cell lines for activity measurement by patch clamp method.
(3) Measurement of Ion Channel Current by Patch Clamp Method (Human Kv1.5-Expressing CHO-K1 Cell Line)
An experiment was carried out using a patch clamp setup at room temperature (20 to 26° C.). A perfusion chamber having a diameter of 20 mm (flow rate: about 5 ml/min) was mounted on the stage of a phase-contrast inverted microscope (produced by Nikon Corporation) placed on a vibration isolated table. A poly-L-lysine (produced by Sigma)-coated coverslip (diameter: 15 mm, produced by Matsunami Glass Ind., Ltd.) on which human Kv1.5-expressing cells were cultured was placed in the perfusion chamber.
Depolarizing stimulation pulses were applied and ionic current was recorded by using a patch clamp amplifier (EPC-7 or EPC-7 PLUS, produced by HEKA) and a personal computer (manufactured by IBM Corp.) in which software for data acquisition and analysis of ion channel current (PULSE 8.77, produced by HEKA) was installed. The current was measured in the whole-cell configuration of the patch-clamp technique. The tip (resistance: 2 to 4 MΩ) of a borosilicate glass pipette (produced by Sutter Instrument Co.) was gently placed on the cell membrane by using a three-dimensional mechanical micromanipulator (produced by Shoshin EM Corporation). […] Subsequently, stronger suction was applied to break the cell membrane. The capacitative current derived from the cell membrane was corrected using a patch clamp amplifier. Subsequently, the series resistance (Rs) between the pipette and the interior of the cell was measured and corrected.
The composition of the extracellular solution used is shown below. Unless otherwise specified, these components were obtained from Wako Pure Chemical Industries, Ltd.
Each test compound was prepared as a 1000-fold concentrated stock solution that was dissolved in DMSO and then diluted in the extracellular solution.
The composition of the electrode internal solution used is shown below. Unless otherwise specified, these components were obtained from Wako Pure Chemical Industries, Ltd.
(5) Measurement of Human Kv1.5 Current
While the membrane potential was bolded at −80 mV, depolarizing pulses (−80 mV for 0.05 seconds→+40 mV for 0.2 seconds →−40 mV for 0.2 seconds→−80 mV for 0.05 seconds) were applied at a stimulation frequency of 1 Hz to measure Kv1.5 channel current. More specifically, first, while perfusing an extracellular solution containing 0.1% DMSO and holding the membrane potential at −80 mV, depolarizing pulses were applied. The current obtained during the pulse application was recorded as a current in the absence of the test compounds. […]

T1 sequence (P22460 whole entry): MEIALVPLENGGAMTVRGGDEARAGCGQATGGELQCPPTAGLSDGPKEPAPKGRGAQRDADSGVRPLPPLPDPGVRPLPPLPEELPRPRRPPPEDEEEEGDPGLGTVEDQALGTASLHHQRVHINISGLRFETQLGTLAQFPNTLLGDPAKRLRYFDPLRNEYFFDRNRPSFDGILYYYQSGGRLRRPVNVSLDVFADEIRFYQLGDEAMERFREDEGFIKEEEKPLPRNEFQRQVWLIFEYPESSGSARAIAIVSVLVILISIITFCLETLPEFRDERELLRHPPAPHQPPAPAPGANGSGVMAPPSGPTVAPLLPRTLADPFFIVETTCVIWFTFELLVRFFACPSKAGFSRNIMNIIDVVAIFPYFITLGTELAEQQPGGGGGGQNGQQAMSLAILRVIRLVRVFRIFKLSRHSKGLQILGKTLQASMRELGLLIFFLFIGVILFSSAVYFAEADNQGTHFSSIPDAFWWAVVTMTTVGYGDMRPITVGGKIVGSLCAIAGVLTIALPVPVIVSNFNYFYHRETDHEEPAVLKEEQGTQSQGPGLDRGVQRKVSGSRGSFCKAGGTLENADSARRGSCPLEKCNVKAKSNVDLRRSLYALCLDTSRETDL

Row | SMILES | IC50 [nM]
1 | CCN1C(=O)C(C)(C)C(=O)N(C)c2cc(OCCCN(CCn3ccc4ccccc4c3=O)Cc3ccncc3)ccc21 [Example 23, 1-ethyl-3,3,5-trimethyl-7-(3-{[2-(1-oxo-1H-isoquinolin-2-yl)ethyl]pyridin-4-ylmethylamino}propoxy)-1,5-dihydrobenzo[b][1,4]diazepine-2,4-dione dihydrochloride] | 180
2 | CN1C(=O)C(C)(C)C(=O)N(C)c2cc(OCCCN(CCc3cccnc3)Cc3ccncc3)ccc21 [Example 19, 1,3,3,5-tetramethyl-7-{3-[(2-pyridin-3-ylethyl)pyridin-4-ylmethylamino]propoxy}-1,5-dihydrobenzo[b][1,4]diazepine-2,4-dione trihydrochloride] | 540
3 | CCN1C(=O)C(C)(C)C(=O)N(C)c2cc(OCCCN(CCc3cccnc3)Cc3cccc(C#N)c3)ccc21 [Example 229] | 160
4 | CCN1C(=O)C(C)(C)C(=O)N(C)c2cc(OCCCN(CCn3c(=O)ccc4ccccc43)Cc3ccncc3)ccc21 [Example 63, 1-ethyl-3,3,5-trimethyl-7-(3-{[2-(2-oxo-2H-quinolin-1-yl)ethyl]pyridin-4-ylmethylamino}propoxy)-1,5-dihydrobenzo[b][1,4]diazepine-2,4-dione] | 240
5 | CCN1C(=O)C(C)(C)C(=O)N(C)c2cc(OCCCN(CCn3ccc4ccsc4c3=O)Cc3ccncc3)ccc21 [Example 68, 1-ethyl-3,3,5-trimethyl-7-(3-{[2-(7-oxo-7H-thieno[2,3-c]pyridin-6-yl)ethyl]pyridin-4-ylmethylamino}propoxy)-1,5-dihydrobenzo[b][1,4]diazepine-2,4-dione] | 380
6 | CCN1C(=O)C(C)(C)C(=O)N(C)c2cc(OCCCN(CCc3cccnc3)C(=O)c3ccccc3)ccc21 [Example 633, N-[3-(1-ethyl-3,3,5-trimethyl-2,4-dioxo-2,3,4,5-tetrahydro-1H-benzo[b][1,4]diazepin-7-yloxy)propyl]-N-(2-pyridin-3-ylethyl)benzamide hydrochloride] | 1100
7 | CCN1C(=O)C(C)(C)C(=O)N(C)c2cc(OCCCN(CCc3cccnc3)Cc3ccncc3)ccc21 [Example 8, 1-ethyl-3,3,5-trimethyl-7-{3-[(2-pyridin-3-ylethyl)pyridin-4-ylmethylamino]propoxy}-1,5-dihydrobenzo[b][1,4]diazepine-2,4-dione trihydrochloride] | 400
8 | Cc1ccccc1CN(CCCOc1ccc2c(c1)N(C)C(=O)C(C)(C)C(=O)N2C)CCc1cccnc1 [Example 50, 1,3,3,5-tetramethyl-7-{3-[(2-methylbenzyl)-(2-pyridin-3-ylethyl)amino]propoxy}-1,5-dihydrobenzo[b][1,4]diazepine-2,4-dione dihydrochloride] | 250
9 | CN1C(=O)C(C)(C)C(=O)N(C)c2cc(OCCCN(CCc3cccnc3)Cc3ccnc4ccccc34)ccc21 [Example 51, 1,3,3,5-tetramethyl-7-{3-[(2-pyridin-3-ylethyl)-(quinolin-4-ylmethyl)amino]propoxy}-1,5-dihydrobenzo[b][1,4]diazepine-2,4-dione trihydrochloride] | 210
10 | CCN1C(=O)C(C)(C)C(=O)N(C)c2cc(OCCCN(CCc3cccnc3)Cc3ccccc3)ccc21 [Example 200] | 290
11 | CCN1C(=O)C(C)(C)C(=O)N(C)c2cc(OCCCN(CCc3cccnc3)Cc3ccccc3-c3cccnc3)ccc21 [Example 242] | 180
12 | CCN1C(=O)C(C)(C)C(=O)N(C)c2cc(OCCCN(CCn3ccc4ccccc4c3=O)Cc3ccco3)ccc21 [Example 132] | 270
13 | CCCN1C(=O)C(C)(C)C(=O)N(C)c2cc(OCCCN(CCc3cccnc3)Cc3ccncc3)ccc21 [Example 10, 3,3,5-trimethyl-1-propyl-7-{3-[(2-pyridin-3-ylethyl)pyridin-4-ylmethylamino]propoxy}-1,5-dihydrobenzo[b][1,4]diazepine-2,4-dione trihydrochloride] | 580
14 | CCN1C(=O)C(C)(C)C(=O)N(C)c2cc(OCCCN(CCn3ccc4ccoc4c3=O)Cc3ccncc3)ccc21 [Example 31, 1-ethyl-3,3,5-trimethyl-7-(3-{[2-(7-oxo-7H-furo[2,3-c]pyridin-6-yl)ethyl]pyridin-4-ylmethylamino}propoxy)-1,5-dihydrobenzo[b][1,4]diazepine-2,4-dione dihydrochloride] | 1300
15 | CCN1C(=O)C(C)(C)C(=O)N(C)c2cc(OCCCN(CCc3cccnc3)Cc3ccncc3C)ccc21 [Example 54, 1-ethyl-3,3,5-trimethyl-7-{3-[(3-methylpyridin-4-ylmethyl)-(2-pyridin-3-ylethyl)amino]propoxy}-1,5-dihydrobenzo[b][1,4]diazepine-2,4-dione trihydrochloride] | 280

The remaining lines, values ahead:

Row | IC50 [nM] | SMILES
16 | 760 | CCN1C(=O)C(C)(C)C(=O)N(C)c2cc(OCCCN(CCn3ccc4occc4c3=O)Cc3ccc(C)nc3C)ccc21 [Example 629, 7-(3-{(2,6-dimethylpyridin-3-ylmethyl)-[2-(4-oxo-4H-furo[3,2-c]pyridin-5-yl)ethyl]amino}propoxy)-1-ethyl-3,3,5-trimethyl-1,5-dihydrobenzo[b][1,4]diazepine-2,4-dione dihydrochloride]
17 | 460 | CCN1C(=O)C(C)(C)C(=O)N(C)c2cc(OCCCN(CCn3ccc4occc4c3=O)Cc3cnccc3C)ccc21 [Example 590, 1-ethyl-3,3,5-trimethyl-7-(3-{(4-methylpyridin-3-ylmethyl)-[2-(4-oxo-4H-furo[3,2-c]pyridin-5-yl)ethyl]-amino}propoxy)-1,5-dihydrobenzo[b][1,4]diazepine-2,4-dione]
18 | 390 | CCN1C(=O)C(C)(C)C(=O)N(C)c2cc(OCCCN(CCn3ccc4occc4c3=O)Cc3cccnc3)ccc21 [Example 551, 1-ethyl-3,3,5-trimethyl-7-(3-{[2-(4-oxo-4H-furo[3,2-c]pyridin-5-yl)ethyl]pyridin-3-ylmethylamino}-propoxy)-1,5-dihydrobenzo[b][1,4]diazepine-2,4-dione]
19 | 500 | CCN1C(=O)C(C)(C)C(=O)N(C)c2cc(OCCCN(CCn3ccc4sccc4c3=O)Cc3cccnc3C)ccc21 [Example 595, 1-ethyl-3,3,5-trimethyl-7-(3-{(2-methylpyridin-3-ylmethyl)-[2-(4-oxo-4H-thieno[3,2-c]pyridin-5-yl)ethyl]-amino}propoxy)-1,5-dihydrobenzo[b][1,4]diazepine-2,4-dione]
20 | 420 | CCN1C(=O)C(C)(C)C(=O)N(C)c2cc(OCCCN(CCn3ccc4sccc4c3=O)Cc3cccnc3)ccc21 [Example 568, 1-ethyl-3,3,5-trimethyl-7-(3-{[2-(4-oxo-4H-thieno[3,2-c]pyridin-5-yl)ethyl]pyridin-3-ylmethylamino}-propoxy)-1,5-dihydrobenzo[b][1,4]diazepine-2,4-dione]
21 | 440 | CCN1C(=O)C(C)(C)C(=O)N(C)c2cc(OCCCN(CCn3ccc4oc(C)cc4c3=O)Cc3ccncc3)ccc21 [Example 464, 1-ethyl-3,3,5-trimethyl-7-(3-{[2-(2-methyl-4-oxo-4H-furo[3,2-c]pyridin-5-yl)ethyl]pyridin-4-ylmethylamino}propoxy)-1,5-dihydrobenzo[b][1,4]diazepine-2,4-dione dihydrochloride]
22 | 330 | CCN1C(=O)C(C)(C)C(=O)N(C)c2cc(OCCCN(CCn3ccc4oc(C)cc4c3=O)Cc3cnccc3C)ccc21 [Example 573, 1-ethyl-3,3,5-trimethyl-7-{3-[[2-(2-methyl-4-oxo-4H-furo[3,2-c]pyridin-5-yl)ethyl]-(4-methylpyridin-3-ylmethyl)amino]propoxy}-1,5-dihydrobenzo[b][1,4]diazepine-2,4-dione]
